From US20260098054A1, “COMPOSITIONS AND METHODS FOR CONSTRUCTING CONJUGATES” (priority 2022, published 2026)
Non-standard residues stand in square brackets, D forms with d. Pen = CC(C)(S)[C@H](N)C(=O)O

Columns and labels:
αvβ3 integrin = αvβ3 integrin (Homo sapiens, UniProt P05106+P06756); conditions: Kapp, et al., Sci. Rep. 2017; cited from earlier work
U87-MG cells = assay: In vitro cytotoxicity assay (CCK-8) in U87-MG cells; conditions: U87-MG (high αvβ3 integrin), 48 h incubation, fold of free DM1 activity
Experimental: (§1) Cells were plated in 96-well microplates at a density of 5×10^4 cells/well for 24 h for attachment, 90 μl of DMEM with 10% FBS and 100 U/mL P/Swas added to each well. PDCs 1-6 were first dissolved in DMSO respectively, at a concentration of 10 mM, followed by serial dilution in culture medium to achieve different concentrations as specified. For U87-MG cells, the concentration of compounds administered ranged from 1.37 to 27000 nM. While for HEK-293T cells, the concentration of compounds administered ranged from 0.03 to 1000 nM. The cells treated with the compounds were then incubated for 48 h. 10 μl of CCK-8 solution was then added to each well and incubated for 30 min. Absorbance was acquired at 450 nm using a spectrophotometer (Synergy HTX, Biotek). Three experiments were performed separately in triplicates and the data was processed using the GraphPad Prism (GraphPad Software, La Jolla, CA).
(§2) Next, the biological activities of these conjugates were evaluated.
Then, the in vitro antitumor efficacy of PDCs 1-6 was examined by CCK-8 assay (FIG. 5B). The IC50 of free DM1 and its conjugates were compared internally within the same cell line, to determine the potency of the six compounds.

HEK-293T cells = assay: In vitro cytotoxicity assay (CCK-8) in HEK-293T cells; conditions: for cytotoxicity in words (ranking among the six compounds): HEK-293T, CCK-8, PDCs 1-6
Experimental: as §1, §2
The peptide-drug conjugates were tested on the negative control cell line.

[1] = Stability test of conjugates (checked by LCMS); assay type: physicochemical; conditions: 5% ACN in H2O or 5% ACN in PBS pH 7.4, 0.5 mM, room temperature or 37° C., LCMS after 24 h and 48 h
Experimental: FIGS. 5A-5C are line graphs of stability test and biological evaluations of PDC 1-6. […] The compound was checked by LCMS after 24 h and 48 h.

integrin αvβ3 = integrin αvβ3 (UniProt P06756 31-1048; P05106 27-788); assay: cell-based or functional assay
integrin αvβ3, sequence (P06756 31-1048, chain 1 of 2): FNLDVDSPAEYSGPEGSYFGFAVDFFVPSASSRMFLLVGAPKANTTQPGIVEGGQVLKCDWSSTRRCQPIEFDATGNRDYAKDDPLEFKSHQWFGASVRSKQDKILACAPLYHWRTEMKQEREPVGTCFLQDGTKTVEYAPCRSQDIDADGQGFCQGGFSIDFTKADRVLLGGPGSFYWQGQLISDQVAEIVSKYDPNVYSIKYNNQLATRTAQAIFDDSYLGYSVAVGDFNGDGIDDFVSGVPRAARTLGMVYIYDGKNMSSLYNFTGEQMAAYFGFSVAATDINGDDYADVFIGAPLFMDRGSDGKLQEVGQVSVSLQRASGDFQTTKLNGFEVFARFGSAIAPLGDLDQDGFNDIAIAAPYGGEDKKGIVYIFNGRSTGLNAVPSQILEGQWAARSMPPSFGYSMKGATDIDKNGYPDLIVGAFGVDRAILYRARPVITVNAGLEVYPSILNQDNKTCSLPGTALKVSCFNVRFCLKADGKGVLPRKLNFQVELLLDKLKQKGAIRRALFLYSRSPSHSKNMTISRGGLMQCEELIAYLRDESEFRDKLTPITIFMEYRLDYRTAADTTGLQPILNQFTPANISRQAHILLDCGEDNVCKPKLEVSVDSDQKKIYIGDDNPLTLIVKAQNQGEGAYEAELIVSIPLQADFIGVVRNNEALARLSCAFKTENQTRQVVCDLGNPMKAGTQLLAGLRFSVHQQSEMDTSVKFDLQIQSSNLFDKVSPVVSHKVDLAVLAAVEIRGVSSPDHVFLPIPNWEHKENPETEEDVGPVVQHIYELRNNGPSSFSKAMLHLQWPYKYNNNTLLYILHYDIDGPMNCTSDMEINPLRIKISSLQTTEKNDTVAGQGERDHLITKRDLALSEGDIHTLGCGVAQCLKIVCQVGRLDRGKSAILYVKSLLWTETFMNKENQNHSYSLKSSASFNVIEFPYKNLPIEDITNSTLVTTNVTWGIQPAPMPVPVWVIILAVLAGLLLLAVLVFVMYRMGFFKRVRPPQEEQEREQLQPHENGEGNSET
integrin αvβ3, sequence (P05106 27-788, chain 2 of 2): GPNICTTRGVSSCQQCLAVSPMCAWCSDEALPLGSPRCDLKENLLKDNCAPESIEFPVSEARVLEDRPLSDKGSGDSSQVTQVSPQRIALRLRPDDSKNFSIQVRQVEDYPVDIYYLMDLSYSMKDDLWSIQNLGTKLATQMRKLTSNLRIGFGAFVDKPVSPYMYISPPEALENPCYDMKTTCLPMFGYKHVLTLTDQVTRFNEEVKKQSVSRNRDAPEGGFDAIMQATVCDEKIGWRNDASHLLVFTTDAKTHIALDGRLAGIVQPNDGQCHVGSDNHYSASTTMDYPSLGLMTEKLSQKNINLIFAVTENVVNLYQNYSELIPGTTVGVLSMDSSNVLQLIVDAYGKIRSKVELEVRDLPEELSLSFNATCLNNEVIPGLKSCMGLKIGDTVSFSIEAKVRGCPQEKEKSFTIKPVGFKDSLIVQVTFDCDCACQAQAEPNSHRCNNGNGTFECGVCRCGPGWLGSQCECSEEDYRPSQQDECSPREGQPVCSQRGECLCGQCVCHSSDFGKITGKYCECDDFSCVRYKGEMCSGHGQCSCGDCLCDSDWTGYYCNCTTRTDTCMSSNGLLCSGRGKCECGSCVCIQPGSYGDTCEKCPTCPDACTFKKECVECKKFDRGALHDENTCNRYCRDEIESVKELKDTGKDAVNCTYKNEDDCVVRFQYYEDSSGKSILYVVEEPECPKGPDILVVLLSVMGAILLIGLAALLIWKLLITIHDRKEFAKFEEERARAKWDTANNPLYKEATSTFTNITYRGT

αvβ3 integrin, sequence (P06756 31-1048): as the sequence (P06756 31-1048, chain 1 of 2) above
αvβ3 integrin, sequence (P05106 27-788): as the sequence (P05106 27-788, chain 2 of 2) above

## c [c [RGDfK]]
αvβ3 integrin
  increase of binding affinity compared to the linear RGD tripeptide: 39 fold

## COc1cc2cc(c1Cl)N(C)C(=O)C[C@H](OC(=O)[C@H](C)N(C)C(=O)CCSSCCn1cc3ccccc3c1SC(C)(C)[C@@H]1NC(=O)[C@@H](Cc3ccccc3)NC(=O)[C@H](CCC(=O)O)NC(=O)CNC(=O)[C@H](CCCNC(=N)N)NC1=O)[C@]1(C)O[C@H]1[C@H](C)[C@@H]1C[C@@](O)(NC(=O)O1)[C@H](OC)/C=C/C=C(\C)C2 [PDC-6]
U87-MG cells
  cytotoxicity compared to free DM1 (IC50 compared within the same cell line): 0.48 fold
HEK-293T cells
  cytotoxicity in words (ranking among the six compounds): relatively better activity among the six compounds

## COc1cc2cc(c1Cl)N(C)C(=O)C[C@H](OC(=O)[C@H](C)N(C)C(=O)CCSSCCn1cc3ccccc3c1SC(C)(C)[C@@H]1NC(=O)[C@@H](Cc3ccccc3)NC(=O)[C@H](CC(=O)O)NC(=O)CNC(=O)[C@H](CCCNC(=N)N)NC1=O)[C@]1(C)O[C@H]1[C@H](C)[C@@H]1C[C@@](O)(NC(=O)O1)[C@H](OC)/C=C/C=C(\C)C2 [PDC-3]
U87-MG cells
  cytotoxicity compared to free DM1 (IC50 compared within the same cell line): 5.95 fold
HEK-293T cells; HEK-293T (low αvβ3 integrin, negative control), 48 h incubation, CCK-8
  cytotoxicity as fold of the activity of DM1: 0.31 fold
HEK-293T cells
  cytotoxicity in words (ranking among the six compounds): relatively better activity among the six compounds
[1]
  stability compared to PDC-1 (FIG. 5A): improved stability

## COc1cc2cc(c1Cl)N(C)C(=O)C[C@H](OC(=O)[C@H](C)N(C)C(=O)CCSc1c3ccccc3cn1CCCC[C@@H]1NC(=O)[C@@H](Cc3ccccc3)NC(=O)[C@H](CC(=O)O)NC(=O)CNC(=O)[C@H](CCCNC(=N)N)NC1=O)[C@]1(C)O[C@H]1[C@H](C)[C@@H]1C[C@@](O)(NC(=O)O1)[C@H](OC)/C=C/C=C(\C)C2 [PDC-1, OPA-c [RGDfK]-DM1]
U87-MG cells
  cytotoxicity compared to free DM1 (IC50 compared within the same cell line): 0.85 fold

## c [c [RGDfV]]
αvβ3 integrin
  increase of binding affinity compared to the linear RGD tripeptide: 58 fold

## COc1cc2cc(c1Cl)N(C)C(=O)C[C@H](OC(=O)[C@H](C)N(C)C(=O)CCSc1c3ccccc3cn1CCCC[C@@H]1NC(=O)[C@@H](Cc3ccccc3)NC(=O)[C@H](CCC(=O)O)NC(=O)CNC(=O)[C@H](CCCNC(=N)N)NC1=O)[C@]1(C)O[C@H]1[C@H](C)[C@@H]1C[C@@](O)(NC(=O)O1)[C@H](OC)/C=C/C=C(\C)C2 [PDC-5]
U87-MG cells
  cytotoxicity compared to free DM1 (IC50 compared within the same cell line): 0.49 fold

B1: PDC-4 (peptide)
peptide: cyclo(RGD[dF]K(Pen))
modifications: not fully specified
Integrin αvβ3
  cytotoxicity (CCK-8 assay) in U87-MG cells, fold against free DM1: 1.29 fold
  cytotoxicity (CCK-8 assay) in the αvβ3-negative cell line HEK-293T, fold of the activity of DM1: 0.16 fold
